Experimental data from ChEMBL document CHEMBL5390312, “Discovery of Tumor-Targeted 6-Methyl Substituted Pemetrexed and Related Antifolates with Selective Loss of RFC Transport” (ACS Med Chem Lett, 2023).
pIC50: −log10 of the molar value. Active and inactive are the calls of the source. The rule behind the calls is not given here.

Legend:
Assay type in all cases: functional, cell-based
KB [1] = experiment: Antiproliferative activity against human KB cells assessed as inhibition of cell growth upto 1000 nM incubated for 96 hrs in the presence of AICA by CellTiter-Blue cell viability assay
KB [2] = experiment: Antiproliferative activity against human KB cells assessed as inhibition of cell growth upto 1000 nM incubated for 96 hrs in the presence of adenosine by CellTiter-Blue cell viability assay
[3] = Antiproliferative activity against chinese hamster R2 cells assessed as inhibition of cell growth incubated for 96 h by CellTiter-Blue cell viability assay; conditions: Cricetulus griseus, R2, 96 h
KB [4] = experiment: Antiproliferative activity against human KB cells assessed as inhibition of cell growth upto 1000 nM incubated for 96 hrs in the presence of thymidine by CellTiter-Blue cell viability assay
KB [5] = experiment: Antiproliferative activity against human KB cells assessed as inhibition of cell growth upto 1000 nM incubated for 96 hrs in the presence of thymidylate by CellTiter-Blue cell viability assay
KB [6] = experiment: Antiproliferative activity against human KB cells assessed as inhibition of cell growth upto 1000 nM incubated for 96 hrs in the presence of glycine by CellTiter-Blue cell viability assay

Structure (SMILES)	Activity (KB [1])	Activity (KB [2])	pIC50 [3]	Activity (KB [4])	Activity (KB [5])	Activity (KB [6])
Cc1[nH]c2nc(N)[nH]c(=O)c2c1CCc1ccc(C(=O)N[C@@H](CCC(=O)O)C(=O)O)c(F)c1	inactive	inactive	< 6.00			
Nc1nc2[nH]cc(CCc3ccc(C(=O)N[C@@H](CCC(=O)O)C(=O)O)c(F)c3)c2c(=O)[nH]1	inactive	inactive	< 6.00	inactive	Active	
Cc1[nH]c2nc(N)[nH]c(=O)c2c1CCc1ccc(C(=O)N[C@@H](CCC(=O)O)C(=O)O)cc1	inactive	inactive	< 6.00			
Nc1nc2[nH]cc(CCc3ccc(C(=O)N[C@@H](CCC(=O)O)C(=O)O)cc3)c2c(=O)[nH]1 [PEMETREXED]	inactive	inactive	< 6.00	inactive	Active	
Nc1nc2[nH]cc(CCCc3ccc(C(=O)N[C@@H](CCC(=O)O)C(=O)O)cc3)c2c(=O)[nH]1	inactive	inactive	< 6.00	inactive	Active	inactive
Cc1[nH]c2nc(N)[nH]c(=O)c2c1CCCc1ccc(C(=O)N[C@@H](CCC(=O)O)C(=O)O)cc1	inactive	inactive	< 6.00			
Nc1nc2[nH]cc(CCc3ccc(C(=O)N[C@@H](CCC(=O)O)C(=O)O)s3)c2c(=O)[nH]1			< 6.00			
Cc1[nH]c2nc(N)[nH]c(=O)c2c1CCc1ccc(C(=O)N[C@@H](CCC(=O)O)C(=O)O)s1	inactive	inactive	< 6.00			
